The results in this text go back to patent US20130197189A1, “Method For Synthesizing A Cyclic Multivalent Peptide Using A Thiol-Mediated Reaction” (The Regents of the University of Colorado, A Body Corporate, priority 2010, published 2013).

One assay concerns the target T1, GPIIb/IIIa (Homo sapiens, UniProt P05106+P08514).
T1 construct: purchased Enzyme Research Laboratories (South Bend, Ind.)
T1 sequence (P08514 32-887 limits assumed): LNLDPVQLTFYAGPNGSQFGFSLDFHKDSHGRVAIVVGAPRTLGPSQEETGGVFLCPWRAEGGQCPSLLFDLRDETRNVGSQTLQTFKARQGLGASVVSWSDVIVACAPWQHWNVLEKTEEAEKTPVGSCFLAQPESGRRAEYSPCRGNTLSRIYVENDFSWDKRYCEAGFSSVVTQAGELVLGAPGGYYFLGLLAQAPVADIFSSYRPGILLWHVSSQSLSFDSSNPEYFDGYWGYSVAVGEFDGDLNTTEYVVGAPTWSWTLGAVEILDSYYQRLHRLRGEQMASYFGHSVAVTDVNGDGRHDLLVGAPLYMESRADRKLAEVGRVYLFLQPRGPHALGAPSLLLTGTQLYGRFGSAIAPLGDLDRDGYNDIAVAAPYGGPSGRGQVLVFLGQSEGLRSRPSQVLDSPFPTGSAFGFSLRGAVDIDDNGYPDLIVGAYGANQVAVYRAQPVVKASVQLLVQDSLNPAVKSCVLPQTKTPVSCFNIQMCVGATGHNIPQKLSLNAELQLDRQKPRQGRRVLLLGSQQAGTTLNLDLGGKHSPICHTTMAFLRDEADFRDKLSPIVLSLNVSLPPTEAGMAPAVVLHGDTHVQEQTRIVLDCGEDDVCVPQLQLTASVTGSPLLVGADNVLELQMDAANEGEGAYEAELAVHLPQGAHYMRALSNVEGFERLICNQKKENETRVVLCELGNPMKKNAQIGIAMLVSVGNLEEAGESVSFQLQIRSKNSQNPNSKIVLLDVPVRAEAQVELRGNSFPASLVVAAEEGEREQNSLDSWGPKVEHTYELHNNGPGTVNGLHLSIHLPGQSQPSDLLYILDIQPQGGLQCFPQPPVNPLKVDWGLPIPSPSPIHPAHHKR
T1 sequence (P05106 27-788): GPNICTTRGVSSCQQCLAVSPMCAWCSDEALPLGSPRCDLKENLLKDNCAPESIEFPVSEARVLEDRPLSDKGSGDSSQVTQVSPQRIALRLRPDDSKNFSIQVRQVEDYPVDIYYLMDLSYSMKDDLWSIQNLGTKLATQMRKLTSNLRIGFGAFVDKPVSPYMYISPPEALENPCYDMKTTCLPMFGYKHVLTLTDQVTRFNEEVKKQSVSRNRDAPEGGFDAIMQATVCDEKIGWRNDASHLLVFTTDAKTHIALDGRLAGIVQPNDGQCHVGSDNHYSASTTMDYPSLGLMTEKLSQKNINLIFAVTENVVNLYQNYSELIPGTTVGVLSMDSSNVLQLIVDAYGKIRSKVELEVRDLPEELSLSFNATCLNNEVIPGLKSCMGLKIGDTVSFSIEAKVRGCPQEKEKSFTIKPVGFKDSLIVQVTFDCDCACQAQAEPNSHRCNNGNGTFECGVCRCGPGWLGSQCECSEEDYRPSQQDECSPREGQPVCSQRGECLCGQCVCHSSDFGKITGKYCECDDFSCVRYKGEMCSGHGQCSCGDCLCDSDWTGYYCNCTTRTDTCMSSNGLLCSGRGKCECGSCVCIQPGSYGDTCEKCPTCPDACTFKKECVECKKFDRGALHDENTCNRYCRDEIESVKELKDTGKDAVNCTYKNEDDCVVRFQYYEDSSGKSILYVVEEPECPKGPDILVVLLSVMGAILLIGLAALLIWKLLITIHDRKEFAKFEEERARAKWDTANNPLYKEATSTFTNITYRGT
Put plainly: Fibrinogen binding ELISA (competitive binding ELISA: inhibition of fibrinogen binding to GPIIb/IIIa). As for the experimental part: A 96-well Maxisorp plate (Nunc) was coated with GPIIb/IIIa (10 μg mL^−1, 100 μL) and incubated at 4° C. overnight. The plate was washed (5×) with buffer (50 mM Tris-HCl, 100 mM NaCl, 2 mM CaCl2, 0.05% Tween20, pH 7.4). Blocking solution (3.5% BSA, 100 μL) was added to the well and incubated at 37° C. for 3 hours. The plate was washed (5×) with buffer. Peptides (50 μL) and fibrinogen (40nM, 50 μL) were added to the plate and incubated at room temperature for 3 hours. The plate was washed (5×) and antibody (goat polyclonal to fibrinogen (HRP), 1:20,000 dilution, 100 μL) was added to the plate and incubated for 1 hour at room temperature. The plate was washed (5×) and substrate (2,2′-azino-bis(3-ethylbenzthiazoline-6-sulphonic acid, ABTS, 100 μL) was added to the wells and allowed to react for 5 minutes. The absorbance was measured (Perkin Elmer Wallac Victor2 1420 Multilabel Counter) at 405 nm. The data was analyzed using Graphpad Prism 5.
Glycoprotein Iib-IIIa (GPIIb/IIIa) is present on platelets and its binding to fibrinogen has been associated with platelet aggregation.
A competitive binding ELISA was used to determine the potency of the multivalent RGD peptides. GPIIb/IIIa is known to contain the integrins αIIβ and β3, which bind RGD peptide sequences. Fibrinogen is also known to bind to these integrins. The ELISA was performed to quantitate the inhibition of bound fibrinogen in the presence of RGD peptide. The ELISA was performed as described previously.4 Briefly, GPIIb/IIIa was incubated in a 96 well Maxisorp plate (Nunc) (10 μg ml^−1) overnight at 4° C. The plate was blocked for non-specific interactions using BSA (3.5 wt%, 3 hr). Varying peptides concentrations and fibrinogen (40 nM) was incubated in the plate for 3 hr at room temperature. Fibrinogen antibody (HRP) (1:20,000 dilution) as added (1 hr). The substrate (2,2′-Azinobis[3-ethylbenzothiazoline-6-sulfonic acid]-diammonium salt-ABTS) was added and the absorbance measured at 405 nm. Peptide concentrations are reported as total molecule molarity as opposed to normalized [RGD].

In the next assay the test system is MIN6 cells. In words: MIN6 cells encapsulated in PEG diacrylate gels with RGD, metabolic activity by Alamar Blue assay. Conditions: FIG. 19; for MIN6 viability / cell survival: 100 μM RGD in PEG gel, 10-day study. It counts as cell-based. The source says: To test whether cyclic RGD, when encapsulated in PEG gels may enhance the survival of MIN6 cells, cyclic RGD was incorporated into PEG gels and applied to cell cultures of MIN6 cells. A cyclic RGD dimer was synthesized on-resin using Traut's reagent. The dimer contained a free thiol, which could be utilized for conjugation into PEG networks via thiol-acrylate photopolymerizations.
To examine whether the cyclic RGD derivatives could enhance cell viability, MIN6 cells were encapsulated at a relatively low density (5×10^6 cells mL^−1, data not published) in PEG diacrylate gels with varying amounts of RGD. Cell metabolic activity was measured using an Alamar Blue assay. […] Total molar RGD concentration was held constant during the study.
A general note: Alamar Blue is a resazurin reagent that responds to reducing activity.

Like-named read-outs stand apart in the source and are kept apart here. *1 amine or outer side, *2 acyl side, *3 side chain or, on linkers, in order; H or OH if unused. Where a SMILES comes first, the peptide text is derived from it. Bridges are numbered along the chain shown (N, C = ends). [ ]: non-standard residue; d: D form. X2 = O=C(C1CC2CC1C([*:1])C2)[*:2]; X1 = O=C(OCCC[*:1])[*:2]

Take `N=C(N)NCCC[C@@H]1NC(=O)[C@@H](NC(=O)CNC(=O)CNC(=O)[C@@H](N)CS)CSCCCOC(=O)NCCCC[C@@H](C(N)=O)NC(=O)[C@@H](Cc2ccccc2)NC(=O)[C@H](CO)NC(=O)[C@H](CC(=O)O)NC(=O)CNC1=O` [Compound #2, H-CGGc[CRGDSfK(Alloc)]-NH2] (H-CGGCRGDS[dF]K-NH2; linker 4-10 via X1): at GPIIb/IIIa (competitive binding ELISA), the “potency relative to linear RGD (compound #1)” value was “enhanced potency”. In the assay on MIN6 cells, the “MIN6 viability / cell survival” value is given as “increased viability”. Also, the “MIN6 metabolic activity relative to linear counterpart at the same concentration” value with MIN6 cells (400 μM RGD in PEG gel, 5×10^6 cells mL^−1) was “significantly enhanced metabolic activity”. On to “H-CGGRGDS-NH2 [Compound #1, H-CGGRGDS-NH2]”, for which the IC50 on GPIIb/IIIa (Table 2, mean ± SEM, triplicate, repeated twice, peptide concentration as total molecule molarity, not normalized [RGD], read-out: IC50(μM), inhibition of fibrinogen binding to GPIIb/IIIa) is 15.4 ± 4.2 µM. Further, the “MIN6 viability / cell survival” value in the assay with MIN6 cells is “not able to support cell survival”. Regarding `CC(=O)N[C@H]1CSC2CC3CC(C(=O)NCCCC[C@@H](C(N)=O)NC(=O)[C@@H](Cc4ccccc4)NC(=O)[C@H](CO)NC(=O)[C@H](CC(=O)O)NC(=O)CNC(=O)[C@H](CCCNC(=N)N)NC1=O)C2C3` (stereo partly shown) [Ac-c[CRGDSfK(Norbornene)]-NH2] (Ac-CRGDS[dF]K-NH2; linker 1-7 via X2), the IC50 on GPIIb/IIIa came out at 0.36 ± 0.09 µM.

On GPIIb/IIIa, `N=C(N)NCCC[C@@H]1NC(=O)[C@@H](NC(=O)CNC(=O)CNC(=O)[C@@H](N)CSCC(CCC(=O)NCCCC[C@H](NC(=O)CN)C(=O)NCC(=O)NCCCCCC(=O)NCC(=O)N[C@@H](CCCCNC(=O)CCC(CSC[C@H](N)C(=O)NCC(=O)NCC(=O)N[C@H]2CSCCCOC(=O)NCCCC[C@@H](C(N)=O)NC(=O)[C@@H](Cc3ccccc3)NC(=O)[C@H](CO)NC(=O)[C@H](CC(=O)O)NC(=O)CNC(=O)[C@H](CCCNC(=N)N)NC2=O)SC[C@H](N)C(=O)NCC(=O)NCC(=O)N[C@H]2CSCCCOC(=O)NCCCC[C@@H](C(N)=O)NC(=O)[C@@H](Cc3ccccc3)NC(=O)[C@H](CO)NC(=O)[C@H](CC(=O)O)NC(=O)CNC(=O)[C@H](CCCNC(=N)N)NC2=O)C(=O)NCC(N)=O)SC[C@H](N)C(=O)NCC(=O)NCC(=O)N[C@H]2CSCCCOC(=O)NCCCC[C@@H](C(N)=O)NC(=O)[C@@H](Cc3ccccc3)NC(=O)[C@H](CO)NC(=O)[C@H](CC(=O)O)NC(=O)CNC(=O)[C@H](CCCNC(=N)N)NC2=O)CSCCCOC(=O)NCCCC[C@@H](C(N)=O)NC(=O)[C@@H](Cc2ccccc2)NC(=O)[C@H](CO)NC(=O)[C@H](CC(=O)O)NC(=O)CNC1=O` (stereo partly shown) [Compound #7] yielded an IC50 of 0.012 ± 0.003 µM.
